Where a name gives a salt, the structure may show the parent alone. Read-outs that look alike come from different tables or passages of the source.
Columns and labels:
Type in all cases: biochemical
[1] = target: T1, human JAK1 (a.a. 837-1142) (Homo sapiens, UniProt P23458); test: In vitro JAK kinase assay (HTRF, phosphorylation of a biotinylated peptide), JAK1; conditions: read-out: JAK1 IC50
T1 construct: human JAK1 (a.a. 837-1142); His tag (N); made in house; host or cells: insect cells (baculovirus)
T1 sequence (P23458 849-1154): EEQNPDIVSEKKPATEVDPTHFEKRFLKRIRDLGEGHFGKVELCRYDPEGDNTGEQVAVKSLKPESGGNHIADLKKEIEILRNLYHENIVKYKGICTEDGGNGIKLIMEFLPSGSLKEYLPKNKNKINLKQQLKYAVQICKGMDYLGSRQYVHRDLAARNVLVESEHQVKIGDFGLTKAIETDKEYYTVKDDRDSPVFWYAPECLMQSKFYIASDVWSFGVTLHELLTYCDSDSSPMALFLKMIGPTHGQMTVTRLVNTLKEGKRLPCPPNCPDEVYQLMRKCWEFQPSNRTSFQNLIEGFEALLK
Outline: (§1)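 Phosphorylation of a biotinylated peptide by the JAK kinase domain, detected by HTRF with Eu-Py20 and SA-APC. ATP was 90 μM for JAK1, 30 μM for JAK2 and 3 μM for JAK3. Reactions ran 1 h at room temperature and were stopped with EDTA, followed by 40 min antibody binding.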

TYK2 = TYK2 (Homo sapiens, UniProt P29597); test: TYK2 kinase inhibition (Table A1)
Chain of TYK2 (P29597 whole entry): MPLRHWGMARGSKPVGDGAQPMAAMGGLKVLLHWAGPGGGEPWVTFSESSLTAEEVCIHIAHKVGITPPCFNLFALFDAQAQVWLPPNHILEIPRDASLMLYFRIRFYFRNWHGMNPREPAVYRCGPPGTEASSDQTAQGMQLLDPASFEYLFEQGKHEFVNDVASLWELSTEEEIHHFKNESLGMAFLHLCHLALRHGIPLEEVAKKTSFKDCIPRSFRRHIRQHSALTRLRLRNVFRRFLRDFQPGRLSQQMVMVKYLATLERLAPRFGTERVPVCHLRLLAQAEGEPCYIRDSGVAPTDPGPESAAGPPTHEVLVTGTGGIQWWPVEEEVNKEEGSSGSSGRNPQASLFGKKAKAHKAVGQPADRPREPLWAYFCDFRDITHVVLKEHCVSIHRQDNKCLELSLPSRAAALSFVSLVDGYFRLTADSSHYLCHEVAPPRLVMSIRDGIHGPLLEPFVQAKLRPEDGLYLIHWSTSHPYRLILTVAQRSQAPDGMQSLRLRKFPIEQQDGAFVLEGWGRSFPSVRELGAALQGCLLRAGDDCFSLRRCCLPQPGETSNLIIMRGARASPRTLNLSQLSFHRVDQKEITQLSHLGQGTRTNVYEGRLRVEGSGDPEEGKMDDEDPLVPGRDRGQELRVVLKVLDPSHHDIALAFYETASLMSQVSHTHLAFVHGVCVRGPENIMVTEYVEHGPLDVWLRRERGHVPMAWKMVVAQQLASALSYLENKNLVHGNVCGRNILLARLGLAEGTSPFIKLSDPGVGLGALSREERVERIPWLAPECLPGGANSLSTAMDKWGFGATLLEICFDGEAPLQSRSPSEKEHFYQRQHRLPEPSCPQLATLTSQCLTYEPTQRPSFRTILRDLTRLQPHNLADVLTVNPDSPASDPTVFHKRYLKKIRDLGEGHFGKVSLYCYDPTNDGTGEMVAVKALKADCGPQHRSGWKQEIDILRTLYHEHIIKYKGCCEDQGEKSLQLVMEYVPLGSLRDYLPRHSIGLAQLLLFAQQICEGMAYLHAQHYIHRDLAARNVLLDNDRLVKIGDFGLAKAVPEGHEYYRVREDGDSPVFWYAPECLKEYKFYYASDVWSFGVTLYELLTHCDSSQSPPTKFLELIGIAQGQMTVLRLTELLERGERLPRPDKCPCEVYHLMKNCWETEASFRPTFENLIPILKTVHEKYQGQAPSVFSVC

[2] = target: T2, human JAK3 (a.a. 781-1124) (Homo sapiens, UniProt P52333); test: In vitro JAK kinase assay (HTRF, phosphorylation of a biotinylated peptide), JAK3
T2 construct: JAK3 (a.a. 781-1124); His tag (N); made in house; host or cells: insect cells (baculovirus)
T2 sequence (P52333 781-1124): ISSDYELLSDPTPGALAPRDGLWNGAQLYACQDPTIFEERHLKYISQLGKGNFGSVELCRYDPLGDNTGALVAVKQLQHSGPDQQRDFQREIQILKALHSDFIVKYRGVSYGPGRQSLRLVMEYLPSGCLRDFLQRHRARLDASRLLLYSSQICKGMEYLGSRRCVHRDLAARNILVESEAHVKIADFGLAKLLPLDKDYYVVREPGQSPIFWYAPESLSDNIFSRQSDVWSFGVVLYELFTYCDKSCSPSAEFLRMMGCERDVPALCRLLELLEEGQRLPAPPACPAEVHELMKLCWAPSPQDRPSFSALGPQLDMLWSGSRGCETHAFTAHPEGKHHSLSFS
Outline: as §1

[3] = target: T3, human JAK2 (a.a. 828-1132) (Homo sapiens, UniProt O60674); test: In vitro JAK kinase assay (HTRF, phosphorylation of a biotinylated peptide), JAK2
T3 construct: JAK2 (a.a. 828-1132); His tag (N); made in house; host or cells: insect cells (baculovirus)
T3 sequence (O60674 828-1132): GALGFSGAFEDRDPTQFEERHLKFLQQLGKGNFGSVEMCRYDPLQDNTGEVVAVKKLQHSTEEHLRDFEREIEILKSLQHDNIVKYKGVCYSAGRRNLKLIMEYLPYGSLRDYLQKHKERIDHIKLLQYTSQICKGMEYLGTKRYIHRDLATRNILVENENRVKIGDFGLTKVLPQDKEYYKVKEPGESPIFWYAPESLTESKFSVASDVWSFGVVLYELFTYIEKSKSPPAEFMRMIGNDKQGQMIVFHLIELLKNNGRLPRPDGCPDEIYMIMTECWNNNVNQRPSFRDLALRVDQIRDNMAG
Outline: as §1

[4] = target: T4, Recombinant Human Anaplastic Lymphoma Kinase (Homo sapiens, UniProt Q9UM73); test: ALK HTRF kinase assay
T4 construct: purchased Invitrogen, Carlsbad, Calif
T4 sequence (Q9UM73 19-1620): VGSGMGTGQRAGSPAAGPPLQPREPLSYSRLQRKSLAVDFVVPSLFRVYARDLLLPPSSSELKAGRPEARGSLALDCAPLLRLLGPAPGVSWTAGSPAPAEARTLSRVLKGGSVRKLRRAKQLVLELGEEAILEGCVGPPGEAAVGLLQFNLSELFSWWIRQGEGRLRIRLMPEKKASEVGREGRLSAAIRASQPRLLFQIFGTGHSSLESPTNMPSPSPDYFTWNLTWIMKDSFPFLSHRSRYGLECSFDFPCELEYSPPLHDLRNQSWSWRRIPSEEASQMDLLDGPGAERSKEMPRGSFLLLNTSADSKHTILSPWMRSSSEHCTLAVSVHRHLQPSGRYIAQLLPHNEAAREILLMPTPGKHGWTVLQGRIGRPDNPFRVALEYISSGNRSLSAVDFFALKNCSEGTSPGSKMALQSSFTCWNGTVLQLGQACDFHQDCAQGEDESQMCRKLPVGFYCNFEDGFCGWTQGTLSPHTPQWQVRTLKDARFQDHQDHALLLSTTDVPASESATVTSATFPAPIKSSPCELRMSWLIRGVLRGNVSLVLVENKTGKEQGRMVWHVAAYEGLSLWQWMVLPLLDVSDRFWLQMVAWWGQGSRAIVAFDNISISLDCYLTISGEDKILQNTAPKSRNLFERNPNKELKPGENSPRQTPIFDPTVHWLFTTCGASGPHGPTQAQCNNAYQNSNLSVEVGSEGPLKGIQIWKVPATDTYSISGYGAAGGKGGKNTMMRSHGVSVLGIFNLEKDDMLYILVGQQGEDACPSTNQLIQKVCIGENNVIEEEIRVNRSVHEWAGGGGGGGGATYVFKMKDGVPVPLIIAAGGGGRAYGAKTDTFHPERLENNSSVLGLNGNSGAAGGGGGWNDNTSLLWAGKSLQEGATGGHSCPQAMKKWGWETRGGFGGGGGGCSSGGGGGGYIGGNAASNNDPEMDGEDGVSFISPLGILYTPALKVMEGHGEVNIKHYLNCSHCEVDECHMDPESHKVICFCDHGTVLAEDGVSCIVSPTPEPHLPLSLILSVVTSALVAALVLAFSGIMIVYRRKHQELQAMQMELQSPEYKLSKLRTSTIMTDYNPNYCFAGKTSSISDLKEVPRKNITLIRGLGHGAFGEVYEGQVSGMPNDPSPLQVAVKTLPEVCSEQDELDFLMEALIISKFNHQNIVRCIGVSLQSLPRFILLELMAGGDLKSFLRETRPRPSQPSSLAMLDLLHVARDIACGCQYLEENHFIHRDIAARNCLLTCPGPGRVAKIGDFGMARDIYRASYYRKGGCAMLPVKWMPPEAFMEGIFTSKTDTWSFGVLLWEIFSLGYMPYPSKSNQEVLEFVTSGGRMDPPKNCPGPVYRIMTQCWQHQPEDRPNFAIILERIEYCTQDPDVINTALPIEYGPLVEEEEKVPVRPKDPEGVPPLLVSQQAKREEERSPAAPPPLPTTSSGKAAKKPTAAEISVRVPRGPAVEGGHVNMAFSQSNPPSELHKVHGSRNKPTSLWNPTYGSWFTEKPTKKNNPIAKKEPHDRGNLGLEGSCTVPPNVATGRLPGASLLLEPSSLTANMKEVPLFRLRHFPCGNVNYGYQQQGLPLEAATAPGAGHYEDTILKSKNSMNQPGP
Outline: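 Biotinylated peptide substrate, recombinant human ALK; detection via europium-chelate antibody to phosphotyrosine paired with streptavidin-APC. Potency expressed as IC50 from four-parameter curve fitting.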

[5] = compound at a concentration of 500 nM or 1 mM (not specified), cells shown as percentage
[6] = percentage inhibition of the example compound at a concentration of 500 nM or 1 mM (not specified which)
[7] = method AA1 (90 μM ATP) or AA2 (1000 μM ATP), not stated per value
[8] = method AA1 (3 μM ATP) or AA2 (1000 μM ATP), not stated per value
[9] = method AA1 (30 μM ATP) or AA2 (1000 μM ATP), not stated per value
[10] = compound at 500 nM or 1 mM, 90 μM ATP

IC50 ([1]; Table B1) [nM]	IC50 (TYK2; Table B1) [nM]	IC50 ([2]; Table B1) [nM]	IC50 ([3]; Table B1) [nM]	ALK % of inhibition at a concentration of 500 nM or 1 mM [4, 5] [%]	SMILES	other results
4.2	21	77	13	23	CN1CCCC1CCNC(=O)Nc1ccc2cc1CCc1cccc(c1)Nc1ncc(Cl)c(n1)N2 (stereo not shown) [Example B256, N-[6-Chloro-2,4,8,22-tetraazatetracyclo[14.3.1.1(3,7).1(9,13)]docosa-1(20),3(22),4,6,9(21),10,12,16,18-nonaen-12-yl]-N′-[2-(1-methylpyrrolidin-2-yl)ethyl]urea bis(trifluoroacetate)]	
18	34	56	12		O=C(Nc1ccc2cc1CCc1cccc(c1)Nc1ncc(Cl)c(n1)N2)C1CCCCC1 [Example B63, N-[6-Chloro-2,4,8,22-tetraazatetracyclo[14.3.1.1(3,7).1(9,13)]docosa-1(20), 3(22),4,6,9(21),10,12,16,18-nonaen-12-yl]cyclohexanecarboxamide trifluoroacetate]	IC50 ([4]; Table B1, cells without percent sign): 600 nM
200	77	> 500	55	12	O=C(Nc1ccc2cc1CCc1cccc(c1)Nc1ncc(Cl)c(n1)N2)c1cnc2ccccc2n1 [Example B72, N-[6-Chloro-2,4,8,22-tetraazatetracyclo[14.3.1.1(3,7).1(9,13)]docosa-1(20), 3(22),4,6,9(21),10,12,16,18-nonaen-12-yl]quinoxaline-2-carboxamide bis(trifluoroacetate)]	
1.1	3.5	10	1.5	22	O=C(NCCO)Nc1ccc2cc1CCc1cccc(c1)Nc1ncc(Cl)c(n1)N2 [Example B241, N-[6-Chloro-2,4,8,22-tetraazatetracyclo[14.3.1.1(3,7).1(9,13)]docosa-1(20),3(22),4,6,9(21),10,12,16,18-nonaen-12-yl]-N′-(2-hydroxyethyl)urea trifluoroacetate]	
35	75	> 400	> 400	58	O=C(Nc1ccc2cc1CCc1cncc(c1)Nc1ncc(Cl)c(n1)N2)N1CCN(c2ccc(C(F)(F)F)cn2)CC1 [Example B301, N-[6-Chloro-2,4,8,18,22-pentaazatetracyclo[14.3.1.1(3,7).1(9,13)]docosa-1(20),3(22),4,6,9(21),10,12,16,18-nonaen-12-yl]-4-[5-(trifluoromethyl)pyridin-2-yl]piperazine-1-carboxamide tris(trifluoroacetate)]	
24	70	> 400	371		CS(=O)(=O)N1CCN(C(=O)Nc2ccc3cc2CCc2cncc(c2)Nc2ncc(Cl)c(n2)N3)CC1 [Example B318, N-[6-Chloro-2,4,8,18,22-pentaazatetracyclo[14.3.1.1(3,7).1(9,13)]docosa-1(20),3(22),4,6,9(21),10,12,16,18-nonaen-12-yl]-4-(methylsulfonyl)piperazine-1-carboxamide bis(trifluoroacetate)]	ALK % of inhibition at a concentration of 500 nM or 1 mM [4, 6]: 61%
					O=C(CC1CCN(C(=O)c2nccs2)CC1)Nc1ccc2cc1CCc1cncc(c1)Nc1ncc(Cl)c(n1)N2 [Example A133, N-[6-Chloro-2,4,8,18,22-pentaazatetracyclo[14.3.1.1(3,7).1(9,13)]docosa-1(20),3(22),4,6,9(21),10,12,16,18-nonaen-12-yl]-2-[1-(1,3-thiazol-2-ylcarbonyl)piperidin-4-yl]acetamide bis(trifluoroacetate)]	IC50 [1, 7]: 2.1 nM; IC50 (TYK2): 5.5 nM; IC50 [2, 8]: 73 nM; IC50 [3, 9]: 11 nM; ALK % of inhibition at a concentration of 500 nM or 1 mM [4, 10]: 32%
					O=C(Nc1ccc2cc1CCc1cccc(c1)Nc1ncc(Cl)c(n1)N2)[C@@H]1CCCN1 [Example A110, (2S)—N-[6-Chloro-2,4,8,22-tetraazatetracyclo[14.3.1.1(3,7).1(9,13)]docosa-1(20),3(22),4,6,9(21),10,12,16,18-nonaen-12-yl]pyrrolidine-2-carboxamide bis(trifluoroacetate)]	IC50 [1, 7]: 32 nM; IC50 (TYK2): 15 nM; IC50 [2, 8]: 14 nM; IC50 [3, 9]: 26 nM; ALK % of inhibition at a concentration of 500 nM or 1 mM [4, 10]: 45%
					O=C(Nc1ccc2cc1CCc1cccc(c1)Nc1ncc(Cl)c(n1)N2)[C@@H]1CCN(C(=O)NC2CCCC2)C1 [Example A63, (3R)—N(3)-[6-Chloro-2,4,8,22-tetraazatetracyclo[14.3.1.1(3,7).1(9,13)]docosa-1(20),3(22),4,6,9(21),10,12,16,18-nonaen-12-yl]-N(1)-cyclopentylpyrrolidine-1,3-dicarboxamide trifluoroacetate]	IC50 [1, 7]: 9 nM; IC50 (TYK2): 13 nM; IC50 [2, 8]: 2.6 nM; IC50 [3, 9]: 2.5 nM; ALK % of inhibition at a concentration of 500 nM or 1 mM [4, 10]: 29%
3	8.2	26	3.4		Cn1ccc(S(=O)(=O)NCCNC(=O)Nc2ccc3cc2CCc2cccc(c2)Nc2ncc(Cl)c(n2)N3)n1 [Example B332, N-{2-[({[6-chloro-2,4,8,22-tetraazatetracyclo[14.3.1.1(3,7).1(9,13)]docosa-1(20),3(22),4,6,9(21),10,12,16,18-nonaen-12-yl]amino}carbonyl)amino]ethyl}-1-methyl-1H-pyrazole-3-sulfonamide trifluoroacetate]	ALK % of inhibition at a concentration of 500 nM or 1 mM [4, 6]: 23%
0.15	0.49	0.64	0.15	71	O=S(=O)(Nc1ccc2cc1CCc1cccc(c1)Nc1ncc(Cl)c(n1)N2)C1CC1 [Example B158, N-[6-Chloro-2,4,8,22-tetraazatetracyclo[14.3.1.1(3,7).1(9,13)]docosa-1(20), 3(22),4,6,9(21),10,12,16,18-nonaen-12-yl]cyclopropanesulfonamide trifluoroacetate]	
86	549	> 10000	158	0.76	Clc1cnc2nc1Nc1ccc(Nc3nccc(-c4ccccc4)n3)c(c1)CCc1cccc(c1)N2 [Example B279, 6-Chloro-N-(4-phenylpyrimidin-2-yl)-2,4,8,22-tetraazatetracyclo[14.3.1.1(3,7).1(9,13)]docosa-1(20),3(22),4,6,9(21),10,12,16,18-nonaen-12-amine tris(trifluoroacetate)]	
					[O-][S+]1Cc2cccc(c2)Nc2nc(ncc2Cl)Nc2cccc1c2 (stereo not shown) [Example D3, 6-Chloro-15-thia-2,4,8,22-tetraazatetracyclo[14.3.1.1(3,7).1(9,13)]docosa-1(20),3(22),4,6,9(21),10,12,16,18-nonaene 15-oxide trifluoroacetate]	IC50 ([1]; Table D1): 25 nM; IC50 (TYK2; Table D1): 40 nM; IC50 ([2]; Table D1): 13 nM; IC50 ([3]; Table D1): 6.3 nM; IC50 ([4]; Table D1, 90 μM ATP): 1110 nM
					O=C(CC1CCN(C(=O)c2ccno2)CC1)Nc1ccc2cc1CCc1cncc(c1)Nc1ncc(Cl)c(n1)N2 [Example A128, N-[6-Chloro-2,4,8,18,22-pentaazatetracyclo[14.3.1.1(3,7).1(9,13)]docosa-1(20),3(22),4,6,9(21),10,12,16,18-nonaen-12-yl]-2-[1-(isoxazol-5-ylcarbonyl)piperidin-4-yl]acetamide bis(trifluoroacetate)]	IC50 [1, 7]: 0.6 nM; IC50 (TYK2): 1.6 nM; IC50 [2, 8]: 64 nM; IC50 [3, 9]: 4.1 nM; ALK % of inhibition at a concentration of 500 nM or 1 mM [4, 10]: 34%

Source: patent publication US8871753B2, “Macrocyclic compounds and their use as kinase inhibitors” (Incyte Corporation, priority 2008, dated 2014)
